Results published in patent US10392368B2, “Pyrazolo and triazolo bicyclic compounds as JAK kinase inhibitors” (THERAVANCE BIOPHARMA R&D IP, LLC, priority 2017, dated 2019).

Experiments:
[1] = target: T1, JAK1 (Homo sapiens, UniProt P23458); experiment: Biochemical JAK1 kinase assay (LanthaScreen); conditions: read-out: JAK 1 (pKi) (converted)
T1 construct: GST; purchased Life Technologies
Method in brief: (§1)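 TR-FRET read-out: terbium anti-pSTAT1 (pTyr701) antibody, 2 nM, with 10 mM EDTA quench, emission ratio 520/495 nm. GST-JAK phosphorylates GFP-STAT1 peptide for 1 h at ambient temperature after 1 h compound pre-incubation. pIC50 from dose-response converted to pKi by Cheng-Prusoff.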

[2] = test system: IL-2 stimulated pSTAT5 in Tall-1 T cells; experiment: Cellular JAK3 potency assay: inhibition of IL-2 stimulated pSTAT5 in Tall-1 T cells; type: cell-based, human; conditions: Homo sapiens, TALL-1, IL-2 stimulated pSTAT5 in Tall-1 T cells; read-out: Tall-1 (pIC50) (converted)
Method in brief: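 Inhibition of IL-2-induced pSTAT5 was quantified by AlphaLisa in Tall-1 cell lysates. Compound exposure lasted 1 h before 30 min stimulation with 300 ng/ml IL-2 final.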

[3] = test system: oxazolone-induced colitis; experiment: Mouse model of oxazolone-induced colitis; type: in vivo; conditions: 3 mg/kg (PO, BID)
Method in brief: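 BALB/c mice skin-sensitized with 4% oxazolone, then challenged intrarectally seven days later with 50 μL 0.8% oxazolone in 1:1 ethanol:water. Oral dosing (QD, BID or TID) or vehicle started one day before challenge. Blinded scoring two days post-challenge: stool consistency plus gross bleeding (0/2/4 each), summed as combined stool score.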

[4] = target: T2, JAK2 (Homo sapiens, UniProt O60674); experiment: Biochemical JAK2 kinase assay (LanthaScreen); conditions: read-out: JAK 2 (pKi) (converted)
T2 construct: GST; purchased Life Technologies
T2 sequence (O60674 whole entry): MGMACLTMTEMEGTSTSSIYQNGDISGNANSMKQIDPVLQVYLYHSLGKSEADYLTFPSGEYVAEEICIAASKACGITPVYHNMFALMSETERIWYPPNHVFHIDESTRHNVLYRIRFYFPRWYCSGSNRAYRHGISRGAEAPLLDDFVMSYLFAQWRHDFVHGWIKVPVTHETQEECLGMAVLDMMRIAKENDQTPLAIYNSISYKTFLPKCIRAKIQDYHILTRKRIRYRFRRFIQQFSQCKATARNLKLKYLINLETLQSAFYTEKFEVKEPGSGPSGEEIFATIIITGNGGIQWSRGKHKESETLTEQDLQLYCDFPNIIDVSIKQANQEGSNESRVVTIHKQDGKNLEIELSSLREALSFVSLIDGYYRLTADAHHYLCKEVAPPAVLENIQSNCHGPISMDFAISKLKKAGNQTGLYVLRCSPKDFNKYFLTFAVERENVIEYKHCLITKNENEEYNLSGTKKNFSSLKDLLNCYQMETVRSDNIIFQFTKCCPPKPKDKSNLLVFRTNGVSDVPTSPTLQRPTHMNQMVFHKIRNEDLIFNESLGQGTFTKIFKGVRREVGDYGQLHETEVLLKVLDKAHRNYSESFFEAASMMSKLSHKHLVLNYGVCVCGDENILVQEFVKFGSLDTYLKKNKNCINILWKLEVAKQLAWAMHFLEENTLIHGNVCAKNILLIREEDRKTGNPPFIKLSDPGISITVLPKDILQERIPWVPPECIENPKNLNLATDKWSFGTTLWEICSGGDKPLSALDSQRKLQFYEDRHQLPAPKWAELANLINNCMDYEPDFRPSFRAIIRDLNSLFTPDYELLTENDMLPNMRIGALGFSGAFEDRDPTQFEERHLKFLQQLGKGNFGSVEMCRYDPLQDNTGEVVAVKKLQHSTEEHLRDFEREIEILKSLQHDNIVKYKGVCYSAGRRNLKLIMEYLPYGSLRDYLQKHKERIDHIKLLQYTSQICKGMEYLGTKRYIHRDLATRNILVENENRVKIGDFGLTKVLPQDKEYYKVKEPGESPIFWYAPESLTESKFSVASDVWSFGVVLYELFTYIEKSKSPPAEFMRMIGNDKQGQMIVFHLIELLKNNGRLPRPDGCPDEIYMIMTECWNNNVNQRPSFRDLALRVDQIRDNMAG
Method in brief: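 pKi values derive from pIC50 via Cheng-Prusoff, with IC50 from a 4-parameter fit of percent-inhibition TR-FRET data using Tb-anti-pSTAT1 (pTyr701) detection. Compound, GST-JAK2 and GFP-STAT1 substrate were pre-incubated 1 h, then ATP started a 1 h ambient reaction (HEPES pH 7.5, 10 mM MgCl2, 1% DMSO).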

[5] = target: T3, Tyk2 (Homo sapiens, UniProt P29597); experiment: Biochemical Tyk2 kinase assay (LanthaScreen); conditions: read-out: Tyk 2 (pKi) (converted)
T3 construct: GST; purchased Life Technologies
T3 sequence (P29597 whole entry): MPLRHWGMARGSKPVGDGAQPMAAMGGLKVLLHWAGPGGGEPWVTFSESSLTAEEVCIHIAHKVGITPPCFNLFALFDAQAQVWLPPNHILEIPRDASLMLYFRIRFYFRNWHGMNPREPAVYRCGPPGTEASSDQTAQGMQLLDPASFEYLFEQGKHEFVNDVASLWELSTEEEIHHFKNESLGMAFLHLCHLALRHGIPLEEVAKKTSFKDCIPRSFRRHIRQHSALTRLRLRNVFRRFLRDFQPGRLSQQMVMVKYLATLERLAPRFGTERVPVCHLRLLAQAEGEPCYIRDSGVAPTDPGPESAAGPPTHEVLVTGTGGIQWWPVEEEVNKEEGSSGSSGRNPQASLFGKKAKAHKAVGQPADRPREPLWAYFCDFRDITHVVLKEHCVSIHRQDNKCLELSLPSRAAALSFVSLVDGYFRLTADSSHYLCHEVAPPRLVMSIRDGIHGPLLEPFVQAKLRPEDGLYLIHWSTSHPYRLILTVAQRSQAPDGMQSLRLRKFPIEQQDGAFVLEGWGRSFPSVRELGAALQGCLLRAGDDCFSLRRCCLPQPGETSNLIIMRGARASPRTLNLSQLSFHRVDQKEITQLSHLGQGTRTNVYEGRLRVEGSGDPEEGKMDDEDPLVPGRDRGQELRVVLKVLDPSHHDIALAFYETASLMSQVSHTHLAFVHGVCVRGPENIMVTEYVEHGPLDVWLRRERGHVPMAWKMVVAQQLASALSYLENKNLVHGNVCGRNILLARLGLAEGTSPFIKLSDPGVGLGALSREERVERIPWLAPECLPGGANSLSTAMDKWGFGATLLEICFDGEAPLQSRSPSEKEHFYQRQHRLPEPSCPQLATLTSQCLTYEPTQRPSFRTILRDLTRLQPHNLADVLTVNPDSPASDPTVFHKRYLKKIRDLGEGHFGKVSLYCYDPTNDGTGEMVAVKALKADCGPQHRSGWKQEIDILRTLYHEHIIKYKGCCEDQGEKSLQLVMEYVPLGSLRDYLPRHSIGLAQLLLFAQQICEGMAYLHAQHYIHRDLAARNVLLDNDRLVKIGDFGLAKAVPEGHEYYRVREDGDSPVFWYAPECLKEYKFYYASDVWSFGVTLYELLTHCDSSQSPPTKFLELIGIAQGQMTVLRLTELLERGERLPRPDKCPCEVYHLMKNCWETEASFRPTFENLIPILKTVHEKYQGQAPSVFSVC
Method in brief: as §1

[6] = test system: IL-2 induced pSTAT5 in thymus; experiment: Systemic target engagement: murine model of IL-2 induced pSTAT5 induction in thymus; type: in vivo, mouse
Text: IL-2 is an important cytokine underlying the pathophysiology of gastro-intestinal diseases such as […] bowel disease (IBD; Guan and Zhang. Mediators Inflamm, 2017; 4810258). IL-2 binds to cell surface receptors activating members of the Janus family of kinases (JAK), specifically JAK3, which then phosphorylates STAT5 and subsequently activates further transcription pathways. In this model, a dose of IL-2 was delivered systemically to mice to induce the phosphorylation of STAT5 (pSTAT5) which was then measured as the endpoint.
Adult male Balb/c mice from Harlan were used in the assay. Animals were administered test compound via oral gavage (PO, 10 or 30 mg/kg for single dose studies; 10-60 mg/kg for dose response studies) on the afternoon of the day prior to study and then in the morning on the day of study. Two hours after the second PO dose administration, mice were injected intraperitoneally (i.p.) with 100 μl of an appropriate IL-2 dose (for a total of 1-5 μg/mouse depending upon IL-2 batch; R&D Systems). 90-120 minutes after IL-2 insult, thymus samples were harvested.

T1 sequence (P23458 whole entry): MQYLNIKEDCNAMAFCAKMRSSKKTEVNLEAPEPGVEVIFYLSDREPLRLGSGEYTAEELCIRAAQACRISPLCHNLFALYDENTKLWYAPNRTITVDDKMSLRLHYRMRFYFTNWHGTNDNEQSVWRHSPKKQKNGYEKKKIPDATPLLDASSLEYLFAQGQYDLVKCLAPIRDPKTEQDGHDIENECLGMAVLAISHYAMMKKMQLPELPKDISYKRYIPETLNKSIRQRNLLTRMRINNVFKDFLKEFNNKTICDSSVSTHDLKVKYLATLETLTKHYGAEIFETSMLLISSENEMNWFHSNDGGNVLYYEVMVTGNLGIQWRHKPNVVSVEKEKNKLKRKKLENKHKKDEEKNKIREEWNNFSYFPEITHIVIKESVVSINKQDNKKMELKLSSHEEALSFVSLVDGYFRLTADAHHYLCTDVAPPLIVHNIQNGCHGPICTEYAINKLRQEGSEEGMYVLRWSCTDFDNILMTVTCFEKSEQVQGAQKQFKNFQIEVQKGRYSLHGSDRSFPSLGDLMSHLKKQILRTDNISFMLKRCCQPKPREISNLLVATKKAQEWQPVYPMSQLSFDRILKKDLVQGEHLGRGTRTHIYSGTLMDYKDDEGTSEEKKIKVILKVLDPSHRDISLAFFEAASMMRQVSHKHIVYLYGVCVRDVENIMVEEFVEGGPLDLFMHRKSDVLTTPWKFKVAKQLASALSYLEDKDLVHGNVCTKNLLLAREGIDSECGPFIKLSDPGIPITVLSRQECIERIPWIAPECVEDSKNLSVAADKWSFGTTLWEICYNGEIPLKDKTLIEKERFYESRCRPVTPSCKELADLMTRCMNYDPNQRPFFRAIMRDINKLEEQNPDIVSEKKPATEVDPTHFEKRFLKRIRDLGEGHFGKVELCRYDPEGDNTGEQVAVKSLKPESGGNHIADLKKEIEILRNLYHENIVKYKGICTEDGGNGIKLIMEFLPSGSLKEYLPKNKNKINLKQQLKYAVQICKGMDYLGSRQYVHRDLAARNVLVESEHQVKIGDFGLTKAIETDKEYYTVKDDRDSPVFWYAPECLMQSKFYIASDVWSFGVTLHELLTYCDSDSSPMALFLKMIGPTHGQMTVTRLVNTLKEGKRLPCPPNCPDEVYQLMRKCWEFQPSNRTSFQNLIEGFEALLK

Compound: CN(C)C/C=C/C(=O)N1CCC(C)(Oc2cc(-c3ccc(O)cc3)cc3[nH]ncc23)CC1 [Compound 9, (E)-4-(dimethylamino)-1-(4-((6-(4-hydroxyphenyl)-1H-indazol-4-yl)oxy)-4-methylpiperidin-1-yl)but-2-en-1-one]
- Ki [1]: > 100 nM
- IC50 [2]: 31.6 to 200 nM

Compound: C=CC(=O)N1CC[C@H](COc2cc(-c3ccc(O)cc3)cc3[nH]ncc23)C1 [Compound 7, (S)-1-(3-(((6-(4-hydroxyphenyl)-1H-indazol-4-yl)oxy)methyl)pyrrolidin-1-yl)prop-2-en-1-one]
- combined stool score endpoint as compared with vehicle treated animals [3]: statistically significant decrease
- Ki [4]: 10 to 100 nM
- Ki [1]: > 100 nM
- Ki [5]: > 100 nM
- inhibition of IL-2 induced pSTAT5 in thymus compared to vehicle ([6]; PO, 10 mg/kg): no significant inhibition
- IC50 [2]: 31.6 to 200 nM

Compound: C=CC(=O)N1CC(COc2nc(-c3ccc(O)cc3)nc3[nH]ncc23)C1 [Compound 4, 1-(3-(((6-(4-hydroxyphenyl)-1H-pyrazolo[3,4-d]pyrimidin-4-yl)oxy)methyl)azetidin-1-yl)prop-2-en-1-one]
- combined stool score endpoint as compared with vehicle treated animals [3]: statistically significant decrease
- Ki [4]: > 100 nM
- Ki [1]: > 100 nM
- Ki [5]: > 100 nM
- inhibition of IL-2 induced pSTAT5 in thymus compared to vehicle ([6]; PO, 30 mg/kg): no significant inhibition
- IC50 [2]: 31.6 to 200 nM

Compound: C=CC(=O)N1CC(C(C)(C)Oc2cc(-c3ccc(O)cc3)nc3[nH]ncc23)C1 [Compound 20, 1-(3-(2-((6-(4-hydroxyphenyl)-1H-pyrazolo[3,4-b]pyridin-4-yl)oxy)propan-2-yl)azetidin-1-yl)prop-2-en-1-one]
- Ki [4]: > 100 nM
- Ki [1]: > 100 nM
- Ki [5]: > 100 nM
- IC50 [2]: < 31.6 nM

Compound: CN(C)C/C=C/C(=O)N1CC(COc2cc(-c3ccc(O)c(F)c3)cc3[nH]ncc23)C1 [Compound 5, (E)-4-(dimethylamino)-1-(3-(((6-(3-fluoro-4-hydroxyphenyl)-1H-indazol-4-yl)oxy)methyl)azetidin-1-yl)but-2-en-1-one]
- combined stool score endpoint as compared with vehicle treated animals [3]: statistically significant decrease
- Ki [4]: 10 to 100 nM
- Ki [1]: > 100 nM
- Ki [5]: > 100 nM
- inhibition of IL-2 induced pSTAT5 in thymus compared to vehicle ([6]; PO, 30 mg/kg): no significant inhibition
- IC50 [2]: 31.6 to 200 nM

Compound: CN(C)C/C=C/C(=O)N1CC(C(C)(C)Oc2cc(-c3ccc(O)c(Cl)c3)cc3[nH]ncc23)C1 [Compound 3, (E)-1-(3-(2-((6-(3-chloro-4-hydroxyphenyl)-1H-indazol-4-yl)oxy)propan-2-yl)azetidin-1-yl)-4-(dimethylamino)but-2-en-1-one]
- combined stool score endpoint as compared with vehicle treated animals [3]: statistically significant decrease
- Ki [4]: > 100 nM
- Ki [1]: > 100 nM
- Ki [5]: > 100 nM
- inhibition of IL-2 induced pSTAT5 in thymus compared to vehicle ([6]; PO, 30 and 100 mg/kg): no significant inhibition
- IC50 [2]: 31.6 to 200 nM

Compound: CN(C)C/C=C/C(=O)N1CC(COc2cc(-c3ccc(O)cc3)cc3[nH]ncc23)C1 [Compound 1, (E)-4-(dimethylamino)-1-(3-(((6-(4-hydroxyphenyl)-1H-indazol-4-yl)oxy)methyl)azetidin-1-yl)but-2-en-1-one]
- combined stool score endpoint as compared with vehicle treated animals [3]: statistically significant decrease
- Ki [4]: 10 to 100 nM
- Ki [1]: > 100 nM
- Ki [5]: > 100 nM
- inhibition of IL-2 induced pSTAT5 in thymus compared to vehicle ([6]; PO, 10, 30, 60 and 100 mg/kg): no significant inhibition
- IC50 [2]: 31.6 to 200 nM

Compound: C=CC(=O)N1CC(C)(COc2nc(-c3ccc(O)c(F)c3)nc3[nH]ncc23)C1 [Compound 21, 1-(3-(((6-(3-fluoro-4-hydroxyphenyl)-1H-pyrazolo[3,4-d]pyrimidin-4-yl)oxy)methyl)-3-methylazetidin-1-yl)prop-2-en-1-one]
- combined stool score endpoint as compared with vehicle treated animals [3]: statistically significant decrease
- Ki [4]: > 100 nM
- Ki [1]: > 100 nM
- Ki [5]: > 100 nM
- IC50 [2]: 31.6 to 200 nM

Compound: C=CC(=O)N1CC(CC)(COc2cc(-c3ccc(O)cc3)nc3[nH]ncc23)C1 [Compound 22, 1-(3-ethyl-3-(((6-(4-hydroxyphenyl)-1H-pyrazolo[3,4-b]pyridin-4-yl)oxy)methyl)azetidin-1-yl)prop-2-en-1-one]
- Ki [4]: > 100 nM
- Ki [1]: > 100 nM
- Ki [5]: > 100 nM
- IC50 [2]: 31.6 to 200 nM

Compound: C=CC(=O)N1CCO[C@@H](C(=O)Nc2cc(-c3ccc(O)cc3)cc3[nH]ncc23)C1 [Compound 6, (R)-4-acryloyl-N-(6-(4-hydroxyphenyl)-1H-indazol-4-yl)morpholine-2-carboxamide]
- combined stool score endpoint as compared with vehicle treated animals [3]: statistically significant decrease
- Ki [4]: 10 to 100 nM
- Ki [1]: > 100 nM
- Ki [5]: > 100 nM
- inhibition of IL-2 induced pSTAT5 in thymus compared to vehicle ([6]; PO, 10 mg/kg): no significant inhibition
- IC50 [2]: < 31.6 nM

Compound: C=CC(=O)N1CC[C@H](Oc2cc(-c3ccc(O)c(Cl)c3)cc3[nH]ncc23)C1 [Compound 2, (S)-1-(3-((6-(3-chloro-4-hydroxyphenyl)-1H-indazol-4-yl)oxy)pyrrolidin-1-yl)prop-2-en-1-one]
- combined stool score endpoint as compared with vehicle treated animals [3]: statistically significant decrease
- Ki [4]: > 100 nM
- Ki [1]: > 100 nM
- Ki [5]: > 100 nM
- inhibition of IL-2 induced pSTAT5 in thymus compared to vehicle ([6]; PO, 10, 30 and 60 mg/kg): no significant inhibition
- IC50 [2]: < 31.6 nM

Compound: CN(C)C/C=C/C(=O)N1CC(C#N)(COc2cc(-c3ccc(O)c(F)c3)cc3[nH]ncc23)C1 [Compound 8, (E)-1-(4-(dimethylamino)but-2-enoyl)-3-(((6-(3-fluoro-4-hydroxyphenyl)-1Hindazol-4-yl)oxy)methyl)azetidine-3-carbonitrile]
- combined stool score endpoint as compared with vehicle treated animals [3]: statistically significant decrease
- Ki [4]: 10 to 100 nM
- Ki [1]: > 100 nM
- Ki [5]: > 100 nM
- inhibition of IL-2 induced pSTAT5 in thymus compared to vehicle ([6]; PO, 30 mg/kg): no significant inhibition
- IC50 [2]: < 31.6 nM
